Source: patent US10344065B2, “Method for treating Alzheimer's disease and method for downregulating protein aggregation in brain” (National Cheng Kung University, priority 2017, dated 2019)
Residues, ends and D or L forms follow the SMILES beside them. *: point of attachment. Cbz = O=C(OCc1ccccc1)*

Assays:
MCF7 cell lysates = test: Zfration and degradation of proteins in MCF7 cell lysates; format: biochemical, human
Procedure: (§1) Aliquots of Zfra-deficient breast MCF7 cell lysates (100 μg) were incubated with Zfra (100 μM) for various durations in the presence or absence of proteasome inhibitor MG-132 (50 μM). Zfra formed complexes with cytosolic proteins (or zfrated; see arrows), and disappeared with time even in the presence of MG-132. (B and C) Zfra-negative prostate DU145 cells were exposed to UV (160-720 mJ/cm^2), and aliquots of whole cell lysates (100 μg) were incubated with Zfra peptide (100 μM) for various durations (in PBS) at 37° C., in the presence of a cocktail of protease inhibitors (1:10 dilution). Zfrated proteins (70, 72, 200 kDa and minor band ladders) and exogenous Zfra peptide were degraded with time (>99% in 120 minutes; reducing SDS-PAGE). Synthetic Zfra was in PBS at the first lane at the left, and in Milli-Q water at the last lane at the right. Zfra-free control lysates had only less than 10% degradation of total proteins after incubation for 120 minutes, in the presence of protease inhibitors (data not shown). In the diagram of FIG. 6C, at each time points, the left bar is cell lysates, and the right bar is Zfra peptide. (D) L929 cell lysates (100 μg) were incubated with Zfra peptide (100 μM) for 30 minutes at 37° C. (in PBS). A 30-kDa protein was zfrated in 30 minutes, and 22- and 80-kDa protein was zfrated rapidly and then degraded in 30 minutes (reducing SDS-PAGE). *A nonspecific immunoreactive or a zfrated protein in L929 cells. (E) Zfra peptide (100 μM) bound recombinant His-Tau (2 μg protein) in PBS for 24 hours at room temperature, and the resulting complex resisted dissociation by reducing SDS-PAGE. Abbreviation: Zfra, zinc finger-like protein that regulates apoptosis.
To continue to investigate how Zfra reduces protein aggregation in vivo, we examined whether Zfra interacts with cytosolic proteins and accelerates protein degradation. Zfra peptide at high concentrations may undergo self-polymerization especially in PBS. […] Zfra-deficient human breast MCF7 cells were used. […]

[1] = system: pyramidal neurons in the hippocampi; test: Melanoma B16F10-induced neurodegeneration in nude mice; format: in vivo, mouse; conditions: nude mice, B16F10; data not shown
Procedure: FIG. 4 includes photos showing that Zfra suppresses melanoma B16F10-mediated neurodegeneration in the hippocampus. Nude mice were preinjected with 100 μL, of sterile Milli-Q water or Zfra4-10 (1 mM in sterile water) in 3 consecutive weeks. After treatment for a week, these mice were inoculated with melanoma B16F10 cells on both flanks (2×10^5 cells in 100-μL, PBS). Mice were sacrificed when the tumor sizes grew up to 2000-3000 mm^3 in about a month. (A) Zfra blocked neurodegeneration in the hippocampus (top panel) and prevented the formation of TPC6AΔ plaques in the cortex (bottom panel), which negatively correlates with pS14-WWOX expression. Note the presence of condensed apoptotic nuclei in the hippocampal neurons in the control mice, (B) Metastasis of B16F10 cells to the lung was blocked in Zfra-treated mice. Compared to controls, Zfra suppressed p-S14WWOX expression in the lung by ˜72% suppression (three sections). […] (C and D) The non-spatial learning and memory were determined by novel object recognition task for both 3×Tg and Wwox+/− mice. […]
Six- to eight-week-old male nude (BALB/cAnN.Cg-Foxn1^nu/CrlNarl) mice (National Laboratory Animal Center, Taiwan) were used. […] Tumor volumes were measured daily and calculated using the equation, D×(d)^2/2, where D and d are the major and minor diameters, respectively. […] Z-cell distribution in organs was determined under fluorescence microscopy.

[2] = Self-polymerization of Zfra peptide in PBS (reducing SDS-PAGE); format: physicochemical; conditions: >1 mM in PBS; molecular sizes from 3.5 kDa up to 78 and 80 kDa
L929 cell lysates = test: Zfration and degradation of proteins in L929 cell lysates; format: biochemical, murine
Procedure: as §1, with “A 30-kDa protein was zfrated in 30 minutes, and 22- and 80-kDa protein was zfrated rapidly and then degraded in 30 minutes (reducing SDS-PAGE). *A nonspecific immunoreactive or a zfrated protein in L929 cells. (E) Zfra peptide (100 μM) bound recombinant His-Tau (2 μg protein) in PBS for 24 hours at room temperature, and the resulting complex resisted dissociation by reducing SDS-PAGE. Abbreviation: Zfra, zinc finger-like protein that regulates apoptosis.” left out

Aβ42 = target: T1, Aβ42 (Homo sapiens, UniProt P05067); test: Aβ42 aggregation in vitro (SDS-PAGE); format: biochemical; conditions: 100 μM each peptide, room temperature, 24 hours or less
T1 construct: purchased AnaSpec
T1 sequence (P05067 672-713): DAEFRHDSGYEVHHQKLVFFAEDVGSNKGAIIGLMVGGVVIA
Excerpt: FIG. 5 includes photos and diagrams showing that Zfra suppresses polymerization or aggregation of serine-containing TPC6AΔ and other peptides in PBS. […] The mixtures were subjected to nonreducing sodium dodecyl sulfate polyacrylamide gel electrophoresis (SDS-PAGE). (A) Full-length Zfra or red-fluorescent TMR-Zfra blocked aggregation of Aβ42 (lanes 3, 5, and 7). […] The membrane was stained with antibody against Aβ. (B) Zfra4-10 and one of the TPC6AΔ peptides were resuspended in Milli-Q water or PBS and incubated for 24 hours at room temperature. Zfra4-10 suppressed the polymerization of serine-containing peptides. Reduction in intensity=[1−(Z.P)/(Z+P)]×100%, where Z=Zfra4-10, P=an indicated peptide, and Z.P=peptide mixture. […] Zfra4-10 suppressed polymerization of these peptides in PBS.
Zfra and serine-containing peptides were synthesized by Genemed Synthesis (San Antonio, Tex., USA), (1) Zfra1-31, […] (SEQ ID NO: 2); (2) Zfra4-10, RRSSSCK (SEQ ID NO: 1); (3) WWOX7-21, AGLDDTDSEDELPPG (SEQ ID NO: 3); (4) pS14-WWOX7-21, AGLDDTDpSEDELPPG (SEQ ID NO: 4); (5). […]

Molecule: CC(C)C[C@@H](C=O)NC(=O)[C@H](CC(C)C)NC(=O)[C@H](CC(C)C)NC(=O)OCc1ccccc1 [MG-132, reference compound] (Cbz-Leu-Leu-Leu-aldehyde)
- effect of proteasome inhibitor on degradation of zfrated proteins (MCF7 cell lysates; MCF7 lysates with Zfra, MG-132 50 μM): did not block but enhanced

Molecule: MSSRRSSSCKYCEQDFRAHTQKNAAFPFLAN (MSSRRSSSCKYCEQDFRAHTQKNAATPFLAN; Synthesized pepetide) [Zfra1-31, full-length 31-amino-acid zinc finger-like protein that regulates apoptosis]
- results in similar experiments (melanoma-induced neurodegeneration, metastasis, pS14-WWOX) [1]: Comparable results
- degradation of zfrated proteins (MCF7 cell lysates; MCF7 lysates, with or without MG-132): degraded with time of incubation
- binding of cellular proteins (zfration) (MCF7 cell lysates; MCF7 lysates, complexes resisted SDS and β-mercaptoethanol): Zfra-bound cellular proteins
- self-polymerization [2]: underwent self-polymerization
- zfration and degradation of 80 and 22 kDa proteins (L929 cell lysates; 37° C., PBS): rapidly zfrated and then degraded in 30 minutes
- zfration of 30-kDa protein (L929 cell lysates; 30 minutes): became zfrated
- aggregation of Aβ42 (Aβ42): blocked
